Assay [1] is described as follows: Displacement of [3H]-(+)-MK 801 from PCP binding site of NMDA receptor in pig brain cortex membranes after 120 mins by liquid scintillation spectrometry. The format is cell membranes, Sus scrofa. (In general: In a radioligand displacement assay an active substance lowers the binding of a labelled ligand.)
Assay [2] addresses C-8 sterol isomerase ERG2 (Saccharomyces cerevisiae S288c) (UniProt P32352). As to the kind of experiment: Inhibition of yeast sterol-delta8/7-isomerase assessed as accumulation of cholesta-8-en-3beta-ol at 50 uM.
Assay [3] addresses Sigma non-opioid intracellular receptor 1 (Cavia porcellus, UniProt Q60492). As to the kind of experiment: Displacement of [3H]-pentazocine from sigma1 receptor in guinea pig brain membranes after 120 mins by liquid scintillation counting. The format is cell membranes, Membrane.
In assay [4] the target is C-8 sterol isomerase ERG2 (Saccharomyces cerevisiae S288c) (UniProt P32352). As to the kind of experiment: Inhibition of yeast sterol-delta8/7-isomerase assessed as accumulation of cholesta-7-en-3beta-ol at 1 uM.
Sequence of C-8 sterol isomerase ERG2 (Saccharomyces cerevisiae S288c) (P32352 whole entry, looked up): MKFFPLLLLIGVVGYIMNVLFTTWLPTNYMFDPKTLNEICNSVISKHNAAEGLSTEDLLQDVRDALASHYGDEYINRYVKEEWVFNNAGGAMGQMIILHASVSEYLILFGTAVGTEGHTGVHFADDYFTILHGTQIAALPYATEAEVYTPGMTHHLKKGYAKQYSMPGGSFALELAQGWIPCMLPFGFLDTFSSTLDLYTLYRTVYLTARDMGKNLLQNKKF
Assay [5] has the same target. Put plainly: Inhibition of yeast sterol-delta8/7-isomerase assessed as accumulation of cholesta-7-en-3beta-ol at 50 uM.
The target is the same in assay [6]. Put plainly: Inhibition of yeast sterol-delta8/7-isomerase assessed as accumulation of cholesta-8,14-dien-3beta-ol at 1 uM.
Assay [7] shares this target. Put plainly: Inhibition of yeast sterol-delta8/7-isomerase assessed as accumulation of cholesta-8-en-3beta-ol at 1 uM.
For assay [8] the target is unchanged. As to the kind of experiment: Inhibition of yeast sterol-delta8/7-isomerase assessed as accumulation of cholesta-5,7-dien-3beta-ol at 1 uM.
Assay [9] has the same target. Put plainly: Inhibition of yeast sterol-delta8/7-isomerase at 50 uM.
Assay [10] shares this target. As to the kind of experiment: Inhibition of yeast sterol-delta8/7-isomerase assessed as accumulation of cholesta-5,7-dien-3beta-ol at 50 uM.
In assay [11] the target is T1, Sigma intracellular receptor 2 (Rattus norvegicus, UniProt Q5U3Y7).
T1 sequence (Q5U3Y7 whole entry): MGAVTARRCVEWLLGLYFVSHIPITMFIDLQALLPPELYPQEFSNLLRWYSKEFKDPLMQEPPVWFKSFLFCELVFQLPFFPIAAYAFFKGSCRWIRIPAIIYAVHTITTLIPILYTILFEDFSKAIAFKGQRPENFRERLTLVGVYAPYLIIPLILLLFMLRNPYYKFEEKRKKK
Put plainly: Displacement of [3H]-DTG from sigma2 receptor in rat liver membranes after 120 mins by liquid scintillation counting. The format is cell membranes, Membrane.

Assay [12] concerns the target C-8 sterol isomerase ERG2 (Saccharomyces cerevisiae S288c) (UniProt P32352). Put plainly: Inhibition of yeast sterol-delta8/7-isomerase assessed as accumulation of cholesta-8,14-dien-3beta-ol at 50 uM.
The species named for assay [13] is Sus scrofa. As to the kind of experiment: Displacement of [3H]-(+)-MK 801 from PCP binding site of NMDA receptor in pig brain cortex membranes at 1 uM after 120 mins by liquid scintillation spectrometry. In kind it is cell membranes.
Assay [14] has as its target T1, Sigma intracellular receptor 2. Put plainly: Displacement of [3H]-DTG from sigma2 receptor in rat liver membranes in presence of (+)-pentazocine. The format is cell membranes, Membrane.
Assay [15] addresses C-8 sterol isomerase ERG2 (Saccharomyces cerevisiae S288c) (UniProt P32352). As to the kind of experiment: Inhibition of yeast sterol-delta8/7-isomerase at 1 uM.
The subject of assay [16] is HL-60. As to the kind of experiment: Inhibition of cholesteriol biosynthesis in human HL60 cells assessed as incorporation of 2-13C-acetate. In kind it is functional, cell-based.

As a reminder, the IC50 is the concentration that gives 50% inhibition. What is called inhibition is the relative decrease from the control value, in per cent. As usually defined, the Ki is the equilibrium dissociation constant of an inhibitor or competing ligand from its target.

Active and inactive are the calls of the source. The rule behind the calls is not given here.

Sequence of Sigma non-opioid intracellular receptor 1 (Q60492 whole entry): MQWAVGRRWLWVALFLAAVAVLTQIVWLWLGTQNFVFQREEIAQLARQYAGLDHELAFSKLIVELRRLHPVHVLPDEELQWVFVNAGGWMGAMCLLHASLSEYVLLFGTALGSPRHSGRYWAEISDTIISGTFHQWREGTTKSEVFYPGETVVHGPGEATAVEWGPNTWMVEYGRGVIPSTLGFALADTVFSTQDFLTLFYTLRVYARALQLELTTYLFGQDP

Turning to `c1ccc(C[C@@H]2CN(Cc3ccccc3)CCCN2Cc2ccccc2)cc1`, in [1], the IC50 is greater than 1000 nM. The inhibition entry in assay [2], in [4], in assay [5], in assay [6], in [7] and in [8] was “Active” throughout. For the same molecule, the inhibition result in [9], in assay [10] and in [12] was “Active” in each case. Moreover, the Ki in assay [3] came to 80 nM; in assay [11], 514 nM.
As to `c1ccc(CCN2CCCN(Cc3ccccc3)[C@@H](Cc3ccccc3)C2)cc1`, the IC50 in assay [1] is greater than 1000 nM. For the same molecule, the inhibition entry in assay [2], in [4], in assay [5], in assay [6], in [7] and in assay [8] was “Active” throughout. Moreover, the inhibition entry in [9], in assay [10] and in assay [12] was “Active” each time. The Ki in assay [3] is 40 nM; in [11], 426 nM.
As to `C[C@H]1CN(CC2CCCCC2)CCCN1Cc1ccccc1`, in [1], the half-inhibitory concentration (IC50) was greater than 1000 nM. For the same molecule, the inhibition result in assay [2], in [6], in assay [7] and in assay [12] was “inactive” each time. In addition, the Ki in assay [3] came to 0.22 nM; in [11], 7.4 nM. The inhibition entry in [4], in assay [5], in [8] and in assay [10] was “Active” in each case.
Take `OC(CN1CCCN(Cc2ccccc2)[C@H](Cc2ccccc2)C1)c1ccccc1` (stereo partly drawn): the IC50 in assay [1] came out at 1000 nM. Also, the Ki was 51 nM in [3] and greater than 1000 nM in assay [11]. In addition, in assay [13], the inhibition is 50%.
Consider `CC(C)[C@H]1CN(CC2CCCCC2)CCCN1Cc1ccccc1`, for which the IC50 in assay [1] was greater than 1000 nM. In addition, the inhibition result in assay [2], in assay [4], in assay [5], in assay [6], in [8] and in assay [10] was “Active” throughout. The values for the Ki in assay [3] and in assay [11] were 6 nM and greater than 1000 nM, respectively. In addition, the inhibition entry in [7] and in [12] was “inactive” in each case.
For `CC(C)=CCN1CCCN(Cc2ccccc2)[C@H](Cc2ccccc2)C1`, the IC50 in [1] was greater than 1000 nM. In addition, the inhibition entry in assay [2], in assay [6] and in assay [7] was “inactive” in each case. In addition, the Ki in [3] is 5 nM; in assay [11], 325 nM. Moreover, the inhibition entry in assay [4], in assay [5], in [8], in assay [10] and in [12] was “Active” throughout.
For `COc1ccc(CN2CCCN(Cc3ccccc3)[C@@H](Cc3ccccc3)C2)cc1`, the IC50 in [1] is greater than 1000 nM. Moreover, the inhibition entry in [2] and in assay [4] was “inactive” each time. Also, the Ki in [3] was 29 nM; in [11] it was greater than 1000 nM. Besides, the inhibition result in assay [5], in [6], in [7], in assay [8], in assay [10] and in assay [12] was “Active” throughout.
In the case of `COc1cccc2c1CCCC2CCCN1CCN(C2CCCCC2)CC1` (stereo not drawn), the inhibition constant (Ki) in assay [14] stood at 0.34 nM.
As to `OCC(c1ccccc1)N1CCCN(Cc2ccccc2)[C@H](Cc2ccccc2)C1` (stereo partly drawn), the half-maximal inhibitory concentration (IC50) in assay [1] stood at 1000 nM. Besides, the values for the Ki in assay [3] and in assay [11] were 27 nM and greater than 1000 nM, respectively. Besides, the inhibition in assay [13] was 50%.
With `COc1ccc(CN2CCCN(Cc3ccccc3)[C@H](Cc3ccccc3)C2)cc1`, in assay [1], the 50% inhibitory concentration (IC50) is greater than 1000 nM. The inhibition result in assay [2] is “inactive”. Besides, the Ki in [3] was 42 nM; in assay [11] it was 426 nM. Moreover, the inhibition entry in assay [4], in assay [5], in assay [6], in [7], in assay [8] and in assay [9] was “Active” in each case. Also, the inhibition entry in [10] and in assay [12] was “Active” throughout.
In the case of `CCCCN1CCCN(Cc2ccccc2)[C@@H](Cc2ccccc2)C1`, the IC50 in assay [1] is greater than 1000 nM; in assay [16], 742 nM. Further, the inhibition result in [15], in assay [4], in assay [5], in assay [6], in assay [8] and in [10] was “Active” each time. Further, the inhibition result in [12] is “Active”. Also, the inhibition result in [2] and in assay [7] was “inactive” throughout. The Ki in assay [3] worked out at 3.7 nM; in [11], 238 nM.
For `c1ccc2c(c1)CCCC2CCCCN1CCN(C2CCCCC2)CC1` (stereo not drawn), in [14], the Ki is 14.6 nM.
Molecule `CCCCN1CCCN(Cc2ccccc2)[C@H](Cc2ccccc2)C1` had an IC50 in assay [1] greater than 1000 nM. Moreover, the inhibition entry in assay [2] was “inactive”. Also, the Ki in assay [3] amounted to 3.9 nM; in assay [11] it was 169 nM. For the same molecule, the inhibition entry in [4], in assay [5], in assay [6], in [7], in assay [8] and in [9] was “Active” in each case. For the same molecule, the inhibition result in assay [10] and in [12] was “Active” in each case.
`c1ccc(C[C@H]2CN(Cc3ccccc3)CCCN2Cc2ccccc2)cc1` displayed an IC50 in assay [1] greater than 1000 nM. For the same molecule, the inhibition entry in assay [2] is “inactive”. Further, the Ki was 71 nM in [3] and greater than 1000 nM in assay [11]. Further, the inhibition result in assay [4], in assay [5], in assay [6], in assay [7], in assay [8] and in assay [9] was “Active” in each case. Besides, the inhibition entry in assay [10] and in assay [12] was “Active” in each case.
Molecule `C[C@@H]1CN(CC2CCCCC2)CCCN1Cc1ccccc1` had a half-inhibitory concentration (IC50) in [1] greater than 1000 nM. In addition, the inhibition result in [2], in assay [6], in [7] and in assay [12] was “inactive” throughout. In addition, the figures for the Ki in assay [3] and in [11] were 0.38 nM and 7 nM, respectively. The inhibition entry in assay [4], in [5], in assay [8] and in [10] was “Active” each time.

The values above are taken from ChEMBL document CHEMBL4043136, “Chiral-pool synthesis of 1,2,4-trisubstituted 1,4-diazepanes as novel σ1 receptor ligands” (Bioorg Med Chem, 2017).
